Literature values in US20230312703A1, “Method of Treating Psoriasis with IL-23 Specific Antibody” (Janssen Biotech, Inc., priority 2022, published 2023).
Where “and” joins values, the source holds several entries; their conditions need not be identical. Identical values can stand only once. Like-named read-outs stand apart in the source and are kept apart here.

What was measured:
[1] = tested on: participants with psoriasis; conditions: Week 16; ESTEEM2
[2] = tested on: participants with psoriasis; conditions: Week 16; ESTEEM1
[3] = tested on: participants with psoriasis; conditions: ADVANCE (apremilast arm of cross-study comparison)
[4] = tested on: participants with psoriasis; conditions: Week 16, VOYAGE 1 & 2
[5] = tested on: participants with psoriasis; conditions: Week 16; VOYAGE 2
[6] = tested on: participants with psoriasis
[7] = tested on: participants with psoriasis; remark: listed apart in the source

Molecule	Proportion of participants who achieve a PASI 90 response [1]	Proportion of participants who achieve a PASI 90 response [2]	Proportion of participants who achieve a ss-IGA score of 0 or 1 with ≥2-grade improvement from baseline among randomized participants with scalp psoriasis and an ss-IGA score ≥2 at baseline [2]	Proportion of participants who achieve an Static Physician Global Assessment (sPGA) score of 0 or 1 with at least ≥2 grade improvement from baseline at Week 16 (BSA 2-15%) [3]	Proportion of participants who achieve an IGA score of 0 or 1 with ≥2 grade improvement from baseline (BSA 10-15%) [4]	Proportion of participants who achieve a PASI 90 response [5]	Proportion of participants who achieve an IGA score of clear (0) at Week 16 (BSA >=10%) ([6]; VOYAGE 1, BSA >=10%)	Change in PSSD Symptom score from baseline: Mean (SD) ([6]; Week 16, VOYAGE 1)	Percent improvement in NAPSI score from baseline: Mean (SD) ([6]; Week 16, VOYAGE 1)	Proportion of participants who achieve a PASI 90 response ([6]; Week 16, VOYAGE 1)	Proportion of participants who achieve a PASI 100 response ([6]; Week 16, VOYAGE 1)	Proportion of participants who achieve a ss-IGA score of 0 or 1 with ≥2-grade improvement from baseline among randomized participants with scalp psoriasis and an ss-IGA score ≥2 at baseline ([6]; Week 16, VOYAGE 1)	Proportion of participants with ≥4-point reduction (improvement) in PSSD Itch score from baseline among participants with a PSSD Itch score ≥4 at baseline ([6]; Week 16, VOYAGE 1)	Proportion of participants who achieve an Static Physician Global Assessment (sPGA) score of 0 or 1 with at least ≥2 grade improvement from baseline at Week 16 (BSA 2-15%) ([7]; DISCOVER 1 & 2 (guselkumab arm of cross-study comparison))	Proportion of participants who achieve an IGA score of 0 or 1 with ≥2 grade improvement from baseline (BSA 3-15%) ([7]; Week 16, DISCOVER 1 & 2, BSA 3-15%)
CCOc1cc([C@@H](CS(C)(=O)=O)N2C(=O)c3cccc(NC(C)=O)c3C2=O)ccc1OC [Apremilast]	8.8%	9.8%	46.5%	21.6%											
Guselkumab: fully human IgG1 lambda monoclonal antibody that binds the p19 subunit of human IL-23; heavy chain SEQ ID NO: 9, light chain SEQ ID NO: 10					82.9% vs 9.1%	70.0% vs 2.4%	47.7% vs 1.1%	−41.9 (24.61) vs	34.37 (42.448) vs Percent	73.3% vs 2.9% and 73.3%	37.4% vs 0.6%	83.4% vs 14.5% and 83.4%	75.0% vs 5.7%	55.7%	55.7% vs 12.2%
